Measured values from patent US20180149639A1, “MODELING NEURAL NETWORK DYSFUNCTION” (priority 2014, published 2018).
Entries after “also recorded” stand apart in the source; their conditions may differ.

Experiments:
WT cortical networks = experiment: MEA recordings of WT cortical cultures (spike rate, NAP/NIP duration from ASDR plot); assay type: cell-based, mice
Description: (§1) Primary dissociated cortical neurons were prepared from postnatal day 0 wild type and Shank3 KO mice (Peca et al., 2011) from littermates using standard protocols as described before (Ramamoorthi et al., 2011). For micro-electrode array recordings, dissociated neurons were plated onto substrate embedded electrodes pre-coated with polyethyleneimine (PEI) (Sigma-Aldrich, 0.1%) plus laminin (Life Technologies, 20 μg/ml) at a density of 3×10^3 cells/mm^2. For biochemical experiments, 3×10^5 cells were plated onto 1 well of the 24-well plate pre-coated with 20 μg/ml Poly-D-lysine (PDL, Sigma-Aldrich) and 4 μg/ml laminin (Life Technologies). The cultures were treated with AraC (Sigma-Aldrich, 1 μg/ml) at day 5 in vitro, and maintained up to 21 days after plating.
(§2) The electrical activity of cultured neurons was recorded using MEA2100-Systems (Multichannel Systems) with integrated amplifier. Each MEA dish (6-well MEA 200/30 iR-Ti-rcr, Multichannel Systems) contains six wells, with 9 microelectrodes (TiN, 30 μm diameter) arranged over a 3×3 square grid at 200 μm inter-electrode distance in each MEA well (FIG. 1C). Recordings started 10 minutes after the MEA plates were placed to the headstage, which was set to 35° C., and the culture was supplied with continuous perfusion of 5% carbon dioxide balanced air (Airgas) throughout recording. For all time points earlier than 21 days in vitro (DIV21), MEA recordings lasted 15 minutes. At DIV21, MEA recordings lasted 30 minutes. All MEA recordings were performed in culture medium without perfusion. The electric signals were collected at 10 kHz with MCRack (Multichannel Systems; Version 4.4.2) and analyzed offline.
(§3) The software MCRack was used for spike detection. Raw MEA data was first high-pass filtered at 200 Hz to remove the low-frequency local field potentials. […] The average detection threshold is around 16 μV. Spike sorting was not performed, thus multiunit activity may contribute to the spikes detected from one electrode. Timestamps of spikes were stored and used for further analysis.
(§4) ASDR plot was generated using the method modified from Wagenaar et al. (2008) by summing the number of spikes detected per 200 ms from all electrodes in each well and plotted in time series. Clampfit 10.2 (Molecular Devices) was used for ASDR waveform analysis. 5% of individual ASDR's maximum peak value was calculated and set as the detecting threshold for identifying ASDR spike. […] ASDR spikes with ISIs below 10 seconds were grouped together and defined as network active period (NAP).
(§5) All drugs were dissolved in DMSO to make stock solutions before applying to neurons in culture media for pharmacological studies. Picrotoxin (PTX, stock solution of 100 mM) for blocking GABAA receptors (Tocris), Clonazepam (stock solution of 30 mM) as GABAA receptor positive modulator (Sigma), NBQX (stock solution of 10 mM) for blocking AMPA receptor (Abcam), and CX546 (stock solution of 100 mM) as AMPA receptor potentiator (Tocris) were used in doses as described herein. The maximum concentration of DMSO in the culture media with drug application was 0.08% volume.

[1] = tested on: Shank3 KO cortical networks; experiment: MEA recordings of Shank3 KO cortical cultures (spike rate, NAP/NIP duration from ASDR plot); assay type: cell-based, mice; conditions: for NIP duration relative to WT level: 100 nM
Description: as §1, §2, §3, §4, §5

O=C1CN=C(c2ccccc2Cl)c2cc([N+](=O)[O-])ccc2N1 [CLP, Clonazepam]
NIP duration, dose dependence (WT cortical networks; WT cortical networks DIV21): dose dependently elongated | NIP duration, % longer (WT cortical networks; WT cortical networks DIV21, 100 nM, vs before treatment (basal)): 42±14% | NIP duration, dose dependence ([1]; Shank3 KO networks DIV21): dose dependently increased | NIP duration relative to WT level ([1]; Shank3 KO networks DIV21): normalized the shortened NIP in the Shank3 KO network to the level of WT; also recorded: normalized reduced NIP duration | NIP duration relative to WT level ([1]; Shank3 KO networks DIV21, listed as clonazepam): normalized

O=C(c1ccc2c(c1)OCCO2)N1CCCCC1 [CX546]
NIP duration (decreased to) (WT cortical networks; WT cortical networks DIV21, 30 μM): 58±11% | length of NAP (WT cortical networks; WT cortical networks DIV21, up to 30 μM): remained unchanged | mean spike rate (reduced-firing) in spontaneous network ([1]; Shank3 KO cultures DIV21, 30 μM): rescued the reduced-firing; also recorded: rescued the hypoactive network | mean spike rate (reduced-firing) in PTX-treated network ([1]; Shank3 KO cultures DIV21 with 50 μM PTX, 30 μM): effectively rescued the reduced-firing | duration of NAP ([1]; Shank3 KO networks DIV21): did not significantly change | duration of NIP ([1]; Shank3 KO networks DIV21, CX546 treatment): did not significantly change; also recorded: did not recover the network defect

NS(=O)(=O)c1cccc2c1c([N+](=O)[O-])cc1nc(O)c(O)nc12 [NBQX]
NIP duration (enhanced by) (WT cortical networks; WT cortical networks DIV21, 1 μM): 560±85%

Picrotoxin [PTX]
NIP duration compared to basal (reduced to) (WT cortical networks; WT cortical networks DIV21, 0.2 μM): 51±6% | NIP duration compared to basal (reduced to) (WT cortical networks; WT cortical networks DIV21, 0.5 μM): 44±6% | length of NAP (WT cortical networks; WT cortical networks DIV21, up to 0.5 μM): remained unchanged | mean spike rate (WT cortical networks; WT cultures DIV21, 50 μM, vs before treatment): significantly increased | mean spike rate ([1]; Shank3 KO cultures DIV21, 50 μM, vs before treatment): significantly increased
